Assay results taken from ChEMBL document CHEMBL1128363, “Design, synthesis, biology, and conformations of bicyclic alpha-melanotropin analogues” (J Med Chem, 1995).
Active and inactive are the calls of the source. The rule behind the calls is not given here. Where a SMILES comes first, the peptide text is derived from it. [ ]: non-standard residue; d: D form.

Experiments:
Format in all cases: functional
lizard [1] = assay: Potency of compound was measured in lizard where (+) indicates peptide is prolonged acting.
[2] = Activity expressed as EC50 was measured in lizard.
[3] = Activity expressed as EC50 was measured in frog.
frog [4] = assay: Potency measured in frog where (+) indicates peptide is long acting.
lizard [5] = assay: Potency measured in lizard where (+) indicates peptide is long acting and (-) indicates peptide is not long acting.
frog [6] = assay: Potency measured in frog where (-) indicates peptide is not long acting.
frog [7] = assay: Potency of compound was measured in frog where (+) indicates peptide is prolonged acting and (-) indicates peptide is not prolonged acting.
lizard [8] = assay: Potency of compound was measured in lizard; Inactive
frog [9] = assay: Potency of compound was measured in frog
lizard [10] = assay: Potency of compound was measured in lizard where (-) indicates peptide is not prolonged acting.
[11] = Activity of compound expressed as EC50 was measured in frog; Inactive
frog [12] = assay: Potency of compound was measured in frog; Inactive
[13] = Activity of compound expressed as EC50 was measured in lizard; Inactive

Row | Structure (SMILES) | EC50 [2] [nM] | EC50 [3] [nM] | Potency (lizard [5]) | Potency (frog [6]) | also measured
1 | CC(=O)N[C@H](Cc1ccccc1)C(=O)N[C@@H](CCCN=C(N)N)C(=O)N[C@@H](Cc1c[nH]c2ccccc12)C(N)=O (Ac-[dF]-Arg-Trp-NH2) | 1000 | 10000 | – | – | Potency (lizard [1]): 0.001; Potency (frog [4]): 1e-05
2 | CC(=O)N[C@@H]1CSSC[C@H]2NC(=O)[C@@H](Cc3c[nH]c4ccccc34)NC(=O)[C@H](CCCN=C(N)N)NC(=O)[C@H](Cc3ccccc3)NC(=O)[C@H](Cc3c[nH]cn3)NC(=O)[C@@H](CCC(=O)NCCCC[C@@H](C(N)=O)NC2=O)NC1=O | 400 | 28 | 0.0025 | 0.0035 | –
3 | CC(=O)N[C@@H]1CSSC[C@H]2NC(=O)[C@@H](Cc3c[nH]c4ccccc34)NC(=O)[C@H](CCCN=C(N)N)NC(=O)C(Cc3ccccc3)NC(=O)[C@H](Cc3c[nH]cn3)NC(=O)[C@@H](CC(=O)NCCCC[C@H](C(=O)N3CCC[C@@H]3C(=O)N[C@H](C(N)=O)C(C)C)NC2=O)NC1=O (stereo in doubt) | 33 | 2.5 | 0.03 | – | Potency (frog [4]): 0.04
4 | CC(=O)N[C@@H]1CSSC[C@H]2NC(=O)[C@@H](Cc3c[nH]c4ccccc34)NC(=O)[C@H](CCCN=C(N)N)NC(=O)[C@H](Cc3ccccc3)NC(=O)[C@H](Cc3c[nH]cn3)NC(=O)[C@@H](CC(=O)NCCCC[C@@H](C(N)=O)NC2=O)NC1=O | 33 | 6 | 0.03 | – | Potency (frog [7]): 0.018
5 | CCCC[C@H](NC(C)=O)C(=O)NC1CCCNC(=O)CC[C@H](C(=O)N[C@@H](Cc2c[nH]c3ccccc23)C(=O)NCC(=O)N[C@@H](CCCCN)C(N)=O)NC(=O)[C@@H](Cc2ccccc2)NC(=O)[C@@H](Cc2c[nH]cn2)NC1=O (stereo in doubt) | – | 1000 | – | 0.001 | Potency (lizard [8]): inactive
6 | N=C(N)NCCC[C@H]1NC(=O)[C@@H](Cc2ccccc2)NC(=O)[C@@H](Cc2c[nH]cn2)NC(=O)CNC(=O)CNC(=O)[C@H](Cc2c[nH]c3ccccc23)NC1=O | – | 1200 | – | – | –
7 | CCCC[C@H](NC(C)=O)C(=O)N[C@@H]1CC(=O)NCCCC[C@H](C(N)=O)NC(=O)C(C)(C)NC(=O)[C@@H](Cc2c[nH]c3ccccc23)NC(=O)[C@H](CCCN=C(N)N)NC(=O)[C@@H](Cc2ccccc2)NC(=O)[C@@H](Cc2c[nH]cn2)NC1=O | – | 0.1 | – | – | Potency (frog [9]): 1
8 | CC(=O)N[C@@H](Cc1c[nH]cn1)C(=O)N[C@@H](Cc1ccccc1)C(=O)N[C@@H](CCCN=C(N)N)C(=O)N[C@@H](Cc1c[nH]c2ccccc12)C(N)=O | 15000 | 30000 | – | 5e-06 | Potency (lizard [10]): 0.0014
9 | CC(=O)N[C@@H](Cc1c[nH]cn1)C(=O)N[C@H](Cc1ccccc1)C(=O)N[C@@H](CCCN=C(N)N)C(N)=O | – | – | – | – | EC50 [11]: Not Active; Potency (lizard [8]): inactive; Potency (frog [12]): inactive; EC50 [13]: Not Active
10 | CC(=O)N[C@@H]1CSSC[C@@H](C(N)=O)NC(=O)[C@@H]2CCCCNC(=O)C[C@@H](NC1=O)C(=O)N[C@@H](Cc1c[nH]cn1)C(=O)N[C@H](Cc1ccccc1)C(=O)N[C@@H](CCCN=C(N)N)C(=O)N[C@H](Cc1c[nH]c3ccccc13)C(=O)N2 | 33 | 33 | 0.03 | – | Potency (frog [4]): 0.003
11 | CC(=O)N[C@@H]1CSSC[C@H](C(=O)N[C@H](CCCCN)C(N)=O)NC(=O)[C@@H](Cc2c[nH]c3ccccc23)NC(=O)[C@H](CCCN=C(N)N)NC(=O)C(Cc2ccccc2)NC(=O)[C@H](Cc2c[nH]cn2)NC(=O)[C@@H](CCC(=O)O)NC1=O (stereo in doubt) | 0.3 | 0.04 | – | 2.5 | Potency (lizard [10]): 3
12 | CC(=O)N[C@@H](Cc1cnc[nH]1)C(=O)N[C@H](Cc1ccccc1)C(=O)N[C@@H](CCCNC(=N)N)C(=O)N[C@@H](Cc1c[nH]c2ccccc12)C(N)=O | 10 | 150 | – | 0.001 | Potency (lizard [10]): 0.1
